Consider five compounds from patent publication US20220178900A1, “BIORELEVANT COMPOSITION” (BIORELEVANT.COM LTD., priority 2019, published 2022).

Common to all, as to type: physicochemical
The nature of series [1]: Dissolution in fasted state gastric media (control experiment). Conditions: for drug dose dissolved: after 2 hours of dissolution, fasted state gastric media. As for the experimental part:
(§1) Three biorelevant fed state gastric media at pH 6, pH 5 and pH 3 using the composition in Table 5 were produced. The media at these three pHs were characterised by measuring pH, buffer capacity, particle size (Z-average and polydispersity using Nanosizer) and surface tension (Kruss surface tension K6). The media were stable at time zero and physically stable after 24 hours. Similarly, the key physicochemical properties were unchanged after 24 hours. The dissolution of exemestane (4 tablet×25 mg tablets) in the media was carried out using USP 2 Dissolution Apparatus at 75 rpm (n=6 vessels). Samples of the three biorelevant media were taken from the dissolution vessels and filtered through a 0.45 micrometer nylon filter with prefilter at 5 mins, 10 mins, 15 mins, 20 mins, 25 mins, 30 mins, 45 mins, 60 mins, 90 mins and 120 mins and analysed for exemestane content by HPLC. […] Within 30 minutes more than 80% of the drug was dissolved across the three media.
The dissolution of Sturgeron (15 mg cinnarizine immediate release tablets) was tested in a fasted gastric media (control experiment) and compared with fed gastric media at pH 6, pH 5 and pH 3 using the same dissolution set up as described previously. The dissolution profile of this drug product in the fasted gastric media indicates this basic drug cinnarizine dissolves rapidly in the fasted stomach. […]
The dissolution of danazol (100 mg) hard gelatine capsules was carried out in fasted state gastric media (control) and compared with biorelevant fed state gastric media at pH 6, pH 4.5 and pH 3 as described using the set up and method in the Case Study 1. […] Case Study 6—Examining Physicochemical Properties of FEDGAS Dissolution Media Stored for 72 Hrs at Room Temperature with Dissolution of Megesterol Acetate Capsules FEDGAS media at pH 6, pH 4.5 and pH 3 were prepared by adding the appropriate amount of water in a suitable container, adding the corresponding buffer concentrate and adding the appropriate amount of readily water dispersible biorelevant precursor concentrate and mixing with a magnetic stirrer until homogeneous. […]

Series [2] is described as follows: Dissolution in biorelevant fed state gastric media (FEDGAS), USP 2 Dissolution Apparatus at 75 rpm, HPLC. The conditions noted are these: for dissolution in fed state gastric media compared with fasted state gastric media: fed state gastric media across pH 6 to pH 3; for pH dependence of dissolution profiles in fed state gastric media: fed state media pH 6, pH 5, pH 3. As for the experimental part: In the case studies from 1 to 4, FEDGAS media at pH 6, pH 5 and pH 3 were prepared by adding the appropriate amount of purified water in a suitable container, adding the corresponding buffer concentrate and adding the appropriate amount of biorelevant precursor concentrate and mixing with a magnetic stirrer until homogeneous.
as §1

Assay in series [3]: as above
The conditions noted are these: within 60 minutes; fed state gastric media at pH 6, pH 4.5 and pH 3.

Series [4] is described as follows: FEDGAS dissolution media stored for 72 hrs at room temperature. Conditions: 160 mg capsules in 900 mL; FEDGAS pH 6, pH 4.5, pH 3; room temperature storage. As for the experimental part: The dissolution of danazol (100 mg) hard gelatine capsules was carried out in fasted state gastric media (control) and compared with biorelevant fed state gastric media at pH 6, pH 4.5 and pH 3 as described using the set up and method in the Case Study 1. Referring to FIG. 6, the dissolution in fasted gastric media is negligible even after 2 hours of dissolution. Less than 0.2% of the drug dose is dissolved even after 2 hours of dissolution. […] Dissolution reaches about 55% of the dosage form within 60 minutes in fed state gastric media at pH 6, pH4.5 and pH 3 respectively. Case Study 6—Examining Physicochemical Properties of FEDGAS Dissolution Media Stored for 72 Hrs at Room Temperature with Dissolution of Megesterol Acetate Capsules FEDGAS media at pH 6, pH 4.5 and pH 3 were prepared by adding the appropriate amount of water in a suitable container, adding the corresponding buffer concentrate and adding the appropriate amount of readily water dispersible biorelevant precursor concentrate and mixing with a magnetic stirrer until homogeneous. The three media were stored at room temperature for up to 72 hours. […] The pH, buffer capacity, surface tension and particle size (Z-average) of the FEDGAS pH 6 and FEDGAS pH 3 were measured at t=0 and at t=72 hours. […]

For `C(=C\c1ccccc1)/CN1CCN(C(c2ccccc2)c2ccccc2)CC1` [cinnarizine], the drug dissolved in series [1] (within 30 minutes, fasted gastric media) is on record as about 90%. In series [2], the “dissolution in fed state gastric media compared with fasted state gastric media” value was “slower drug dissolution in all fed state gastric media” and the “pH dependence of dissolution profiles in fed state gastric media” value is recorded as “faster at lower pH”.
With `C#C[C@]1(O)CC[C@H]2[C@@H]3CCC4=Cc5oncc5C[C@]4(C)[C@H]3CC[C@@]21C` [danazol], in series [3], the “Dissolution, % of the dosage form” value is given as “about 55%”. Besides, the drug dose dissolved result in series [1] is “Less than 0.2%”. Moreover, in series [2], the “dissolution in fed state gastric media compared with fasted state gastric media” value is listed as “considerably more rapidly”.
For `C=C1C[C@@H]2[C@H](CC[C@]3(C)C(=O)CC[C@@H]23)[C@@]2(C)C=CC(=O)C=C12` [exemestane], the “pH dependence of dissolution profiles in fed state gastric media” value in series [2] is recorded as “not sensitive to different pHs”. Moreover, the drug dissolved entry in series [2] (within 30 minutes, across the three fed state media pH 6, pH 5 and pH 3, 4 x 25 mg tablets) is on record as “more than 80%”.
`Cc1cccc(Nc2ccccc2C(=O)O)c1C` [mefenamic acid]: in series [1], the drug dose dissolved entry is recorded as “Less than 0.1%”. Moreover, the “dissolution in fed state gastric media compared with fasted state gastric media” value in series [2] is listed as “considerably more rapidly”. Besides, the “Dissolution, % of the dosage form” value in series [2] (within 30 minutes, fed state gastric media pH 3) was about 10%; in series [2] (within 30 minutes, fed state gastric media pH 5), about 25%; in series [2] (within 30 minutes, fed state gastric media pH 6), “about 45%”.
For the compound `CC(=O)O[C@]1(C(C)=O)CC[C@H]2[C@@H]3C=C(C)C4=CC(=O)CC[C@]4(C)[C@H]3CC[C@@]21C` [megesterol acetate], in series [4], the “dissolution profiles in media stored t=0, 24, 48, 72 hours” value is recorded as “identical”.
